Data as given in ChEMBL document CHEMBL1140265, “Inhibitors of HCV NS5B polymerase. Part 1: Evaluation of the southern region of (2Z)-2-(benzoylamino)-3-(5-phenyl-2-furyl)acrylic acid” (Bioorg Med Chem Lett, 2005).

Legend:
[1] = system: Hepatitis C virus; assay: Cytotoxic concentration against Hepatitis C virus replication using sub-genomic replicon assay; type: functional, Hepacivirus hominis
[2] = Bioavailability in rat (dose 5 mg/kg); type: ADME, organism-based; conditions: in vivo
[3] = Maximum concentration in plasma levels in rat after 5 mpk dosage administration; type: ADME, organism-based; design: dose 5 mpk; conditions: 5 mg/kg
[4] = Half-life in rat after 5 mpk dosage administration; type: ADME, organism-based; conditions: in vivo, 5 mg/kg
[5] = target: RNA-directed RNA polymerase (Hepacivirus hominis, UniProt O39930); assay: Inhibitory concentration against Hepatitis C virus NS5B polymerase
Chain of RNA-directed RNA polymerase (O39930 whole entry): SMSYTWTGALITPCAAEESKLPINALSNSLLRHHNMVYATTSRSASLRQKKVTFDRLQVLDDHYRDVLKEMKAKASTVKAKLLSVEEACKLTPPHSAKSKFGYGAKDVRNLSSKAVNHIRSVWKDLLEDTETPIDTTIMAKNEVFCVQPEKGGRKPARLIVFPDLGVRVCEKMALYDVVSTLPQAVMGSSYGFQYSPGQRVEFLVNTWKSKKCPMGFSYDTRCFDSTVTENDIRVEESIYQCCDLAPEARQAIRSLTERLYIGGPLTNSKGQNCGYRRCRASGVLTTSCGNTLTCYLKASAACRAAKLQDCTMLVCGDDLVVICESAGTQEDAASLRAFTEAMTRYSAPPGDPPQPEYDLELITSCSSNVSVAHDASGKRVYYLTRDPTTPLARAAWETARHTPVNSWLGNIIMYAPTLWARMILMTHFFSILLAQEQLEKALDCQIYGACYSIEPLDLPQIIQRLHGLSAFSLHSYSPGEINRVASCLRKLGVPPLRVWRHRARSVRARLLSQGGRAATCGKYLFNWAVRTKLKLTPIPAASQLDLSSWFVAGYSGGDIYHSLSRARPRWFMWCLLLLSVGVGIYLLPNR

[6] = Clearance at low levels in rat after 5 mpk dosage administration; type: ADME, organism-based; conditions: in vivo, 5 mg/kg
[7] = system: Hepatitis C virus; assay: Effective concentration against Hepatitis C virus replication using sub-genomic replicon assay; type: functional, Hepacivirus hominis; conditions: read-out: ED50 (the source's name)

Row | SMILES | IC50 [5] [µM] | also measured
1 | O=C(O)/C(=C/c1ccc(Oc2ccccc2Br)cc1)NC(=O)c1ccccc1 | 0.1 | CC50 [1]: > 100 µM; bioavailability [2]: 21%; Cmax [3]: 9 µM; half-life [4]: 1.5 h; clearance [6]: 3.33 mL/min/kg; EC50 [7]: 28 µM
2 | COc1ccccc1Oc1ccc(/C=C(\NC(=O)c2ccccc2)C(=O)O)cc1 | 15 | 
3 | O=C(O)/C(=C/c1ccc(-c2ccccc2[N+](=O)[O-])o1)NC(=O)c1ccccc1 | 6.9 | 
4 | NS(=O)(=O)c1ccc(-c2ccc(/C=C(\NC(=O)c3ccccc3)C(=O)O)o2)cc1 | > 100 | 
5 | O=C(O)/C(=C/c1ccc(-c2ccccc2)o1)NC(=O)c1ccccc1 | 6.7 | CC50 [1]: > 100 µM; EC50 [7]: > 100 µM
6 | O=C(O)/C(=C/c1ccc(-c2ccccc2F)o1)NC(=O)c1ccccc1 | 3.1 | 
7 | O=C(O)/C(=C/c1ccc(Oc2c(F)cccc2Cl)cc1)NC(=O)c1ccccc1 | 0.07 | 
8 | CC(C)c1ccccc1Oc1ccc(/C=C(\NC(=O)c2ccccc2)C(=O)O)cc1 | 28 | 
9 | O=C(O)/C(=C/c1ccc(Oc2ccccc2-c2ccccc2)cc1)NC(=O)c1ccccc1 | 48 | 
10 | O=C(O)/C(=C/c1ccc(-c2ccc(CO)cc2)o1)NC(=O)c1ccccc1 | > 100 | 
11 | O=C(O)/C(=C/c1ccc(-c2ccc(OC(F)(F)F)cc2)o1)NC(=O)c1ccccc1 | 22 | 
12 | O=C(O)/C(=C/c1ccc(-c2cccc(F)c2)o1)NC(=O)c1ccccc1 | 3.9 | 
13 | O=C(O)/C(=C/c1ccc(-c2ccccc2F)s1)NC(=O)c1ccccc1 | 2.6 | 
14 | O=C(O)/C(=C/c1ccc(Oc2ccccc2F)cc1)NC(=O)c1ccccc1 | 6.9 | 
15 | O=C(O)/C(=C/c1ccc(-c2ccc(Cl)cc2)o1)NC(=O)c1ccccc1 | 4.6 | 
16 | O=C(O)/C(=C/c1ccc(-c2ccccc2OC(F)(F)F)o1)NC(=O)c1ccccc1 | 4 | 
17 | CSc1ccc(-c2ccc(/C=C(\NC(=O)c3ccccc3)C(=O)O)o2)cc1 | 27 | 
18 | O=C(O)/C(=C/c1ccc(-c2ccccc2)s1)NC(=O)c1ccccc1 | 1.5 | 
19 | CSc1ccccc1Oc1ccc(/C=C(\NC(=O)c2ccccc2)C(=O)O)cc1 | 1.8 | 
20 | Cc1cccc(Cl)c1Oc1ccc(/C=C(\NC(=O)c2ccccc2)C(=O)O)cc1 | 0.2 | 
21 | CC(C)Oc1ccccc1Oc1ccc(/C=C(\NC(=O)c2ccccc2)C(=O)O)cc1 | 44 | 
22 | COc1ccccc1-c1ccc(/C=C(\NC(=O)c2ccccc2)C(=O)O)o1 | 20 | 
23 | O=C(O)/C(=C/c1ccc(Oc2c(Cl)cccc2[N+](=O)[O-])cc1)NC(=O)c1ccccc1 | 5.5 | 
24 | O=C(O)/C(=C/c1cncc(-c2ccccc2Cl)c1)NC(=O)c1ccccc1 | > 100 | 
25 | O=C(O)/C(=C/c1ccc(Oc2ccccc2Cl)cc1)NC(=O)c1ccccc1 | 0.2 | CC50 [1]: > 100 µM; bioavailability [2]: 42%; Cmax [3]: 22 µM; half-life [4]: 1.9 h; clearance [6]: 5.17 mL/min/kg; EC50 [7]: 60 µM
26 | N#Cc1ccccc1Oc1ccc(/C=C(\NC(=O)c2ccccc2)C(=O)O)cc1 | 47 | 
27 | O=C(O)/C(=C/c1ccc(-c2ccc([N+](=O)[O-])cc2)o1)NC(=O)c1ccccc1 | > 100 | 

Row | SMILES | IC50 [5] [µM] | also measured
28 | NS(=O)(=O)c1cccc(-c2ccc(/C=C(\NC(=O)c3ccccc3)C(=O)O)o2)c1 | > 100 | 
29 | O=C(O)/C(=C/c1ccc(Oc2ccccc2)cc1)NC(=O)c1ccccc1 | 17 | 
30 | O=C(O)/C(=C/c1cccc(-c2ccccc2Cl)c1)NC(=O)c1ccccc1 | 1.3 | 
31 | CC(C)(C)c1ccccc1Oc1ccc(/C=C(\NC(=O)c2ccccc2)C(=O)O)cc1 | > 100 | 
32 | O=C(O)/C(=C/c1ccc(-c2cccc(OC(F)(F)F)c2)o1)NC(=O)c1ccccc1 | 66 | 
33 | O=C(O)/C(=C/c1ccc(-c2ccccc2Cl)s1)NC(=O)c1ccccc1 | 0.66 | 
34 | Cc1ccccc1-c1ccc(/C=C(\NC(=O)c2ccccc2)C(=O)O)o1 | 3 | 
35 | O=C(O)/C(=C/c1ccc(-c2cccc(Cl)c2)o1)NC(=O)c1ccccc1 | 6 | 
36 | O=C(O)/C(=C/c1ccc(-c2ccccc2C(F)(F)F)o1)NC(=O)c1ccccc1 | 5.6 | 
37 | O=C(O)/C(=C/c1ccc(-c2cccc([N+](=O)[O-])c2)o1)NC(=O)c1ccccc1 | 25 | 
38 | O=C(O)/C(=C/c1ccc(-c2ccccc2CO)s1)NC(=O)c1ccccc1 | 20 | 
39 | O=C(O)/C(=C/c1ccc(-c2cccc(CO)c2)o1)NC(=O)c1ccccc1 | > 100 | 
40 | O=C(O)/C(=C/c1ncc(-c2ccccc2Cl)s1)NC(=O)c1ccccc1 | 5.2 | 
41 | O=C(O)/C(=C/c1ccc(Oc2c(F)cccc2Br)cc1)NC(=O)c1ccccc1 | 0.03 | CC50 [1]: > 100 µM; EC50 [7]: 50 µM
42 | CCc1ccccc1Oc1ccc(/C=C(\NC(=O)c2ccccc2)C(=O)O)cc1 | 9.4 | 
43 | O=C(O)/C(=C/c1ccc(-c2cccc(C(F)(F)F)c2)o1)NC(=O)c1ccccc1 | 8.7 | 
44 | O=C(O)/C(=C/c1ccc(Oc2ccccc2I)cc1)NC(=O)c1ccccc1 | 0.04 | CC50 [1]: > 100 µM; EC50 [7]: 29 µM
45 | O=C(O)/C(=C/c1ccc(-c2ccc(F)cc2)o1)NC(=O)c1ccccc1 | 12 | 
46 | O=C(O)/C(=C/c1ccc(Oc2ccccc2C(F)(F)F)cc1)NC(=O)c1ccccc1 | 1.3 | 
47 | Nc1cccc(Cl)c1Oc1ccc(/C=C(\NC(=O)c2ccccc2)C(=O)O)cc1 | 0.31 | 
48 | O=C(O)/C(=C/c1ccc(-c2ccccc2Cl)o1)NC(=O)c1ccccc1 | 1.3 | 
49 | O=C(O)/C(=C/c1ccc(Oc2ccccc2[N+](=O)[O-])cc1)NC(=O)c1ccccc1 | 73 | 
50 | Cc1ccccc1-c1ccc(/C=C(\NC(=O)c2ccccc2)C(=O)O)s1 | 1.4 | 
51 | Cc1ccccc1Oc1ccc(/C=C(\NC(=O)c2ccccc2)C(=O)O)cc1 | 0.58 | 
52 | O=C(O)/C(=C/c1ccc(-c2ccc(C(F)(F)F)cc2)o1)NC(=O)c1ccccc1 | 13 | 
53 | O=C(O)/C(=C/c1cccc(-c2ccccc2Cl)n1)NC(=O)c1ccccc1 | 11 | 
